Assay results taken from US20010051131A1, “METHODS FOR DELIVERING BIOACTIVE AGENTS” (priority 1996, published 2001).

Legend:
glioblastoma mutiformae = format: in vivo
Experimental: An acoustically active composition is prepared in a 2 mL vial from an aqueous mixture of phosphatidylcholine vesicles filled with perfluorobutane gas in a manner as described above. The resulting compositions contains about 2×10^9 gas filled vesicles. The vial of gas filled vesicles will be diluted into a 100 mL volume of normal saline such that the final gas filled vesicle concentration is about 2×10^7 gas filled vesicles/mL.
The scalp of a patient suffering from glioblastoma mutiformae will be shaved prior to the procedure. The patient will receive an intravenous infusion of 200 mg/M^2 of Carmustine (BCNU) over a period of about 30 minutes. Fifteen minutes after initiating IV injection of Carmustine, IV infusion of the gas filled vesicle composition will be initiated at a rate of about 2 mL per minute (or about 4×10^7 gas filled vesicles per minute). One minute after initiation of infusion of gas filled vesicles, a 200-kilohertz ultrasound transducer will be turned on, and using an acoustic gel, it will be applied to the shaved area of the scalp. The transducer is focused on the glioblastoma. The energy of the transducer will be adjusted to a peak negative pressure of about 2.5 megaPascals and maintained as such for about 30 minutes (for about 15 minutes after infusion of Carmustine has ceased). The infusion of gas filled vesicles will then be terminated.

prostate cancer = experiment: Delivery of a radiation sensitizer to treat prostate cancer with air-filled polylactic acid microspheres and ultrasound; conditions: 100 mg/m^2 IV over 1 hour, microspheres 5×10^7/minute, endorectal ultrasound 1.5 MegaPascals for 30 minutes

Compound	tumor control (glioblastoma mutiformae; 200 mg/M^2 IV over about 30 minutes, gas filled vesicles about 2 mL per minute, 200-kilohertz ultrasound, 2.5 megaPascals)	delivery of the drug into the tumor tissue (glioblastoma mutiformae; in vivo, iv)	delivery of drug within the prostate gland (prostate cancer)	tumor control (prostate cancer; then radiation therapy)
O=NN(CCCl)C(=O)NCCCl [Carmustine]	improved tumor control	enhanced delivery of the drug into the tumor tissue	–	–
CC(=O)O[C@H]1C(=O)[C@@]2(C)[C@H]([C@H](OC(=O)c3ccccc3)[C@]3(O)C[C@H](OC(=O)[C@H](O)[C@@H](NC(=O)c4ccccc4)c4ccccc4)C(C)=C1C3(C)C)[C@]1(OC(C)=O)CO[C@@H]1C[C@@H]2O [Paclitaxel]	–	–	increased delivery of drug within the prostate gland	Improved tumor control
